The values below come from US20250161294A1, “COMPOSITIONS AND METHODS FOR TREATMENT OF OCULAR DISORDERS” (Bausch + Lomb Ireland Limited, priority 2023, published 2025).

SMILES strings stand for the structures.

Data set [1] concerns S. aureus. The data set is described as follows: Antimicrobial properties of F6H8, Ph. Eur. 5.1.3 method. It is filed as cell-based. The settings on record: for Count: inoculum 2 × 10^5.
The test system of data set [2] is C. albicans. The data set is described as above. It is filed as cell-based. The note with it: for Count: inoculum 9 × 10^5. The protocol: (§1) The antimicrobial properties of F6H8 were evaluated according to the Ph. Eur. 5.1.3 method.
The subject of data set [3] is E. coli. The data set is described as above. It is filed as cell-based. The note with it: for Count: inoculum 2 × 10^5. The protocol:
as §1

The subject of data set [4] is P. aeruginosa. The data set is described as above. It is filed as cell-based. The settings on record: for Count: inoculum 8 × 10^5. The protocol: as §1
The subject of data set [5] is A. brasiliensis. Described as above. The settings on record: for Count: inoculum 7 × 10^5. It is filed as cell-based. The protocol:
as §1

For data set [6], the system named is viable bacteria; yeasts and molds. The data set can be described thus: Antimicrobial effectiveness acceptance criteria, Ph. Eur. 5.1.3 (overall). In kind it is cell-based. The settings on record: bacteria: >=2 log reduction at 6 hours, >=3 log at 24 hours, no recovery at 28 days; yeasts and molds: >=2 log at 7 days, no increase at 28 days; no extrinsic preservative. As for the experimental part: as §1

Data set [7] in a line: Solubility of lifitegrast free acid in F6H8. The note with it: lifitegrast free acid added to F6H8 at 0.25% to 10% (w/w); forms a suspension. It is filed as physicochemical. An excerpt: The lifitegrast is in soluble in F6H8 and forms a suspension. When left standing the lifitegrast settles to form a sediment.

For `CCCCCCCCC(F)(F)C(F)(F)C(F)(F)C(F)(F)C(F)(F)C(F)(F)F` [F6H8, 1-perfluorohexyloctane], the Log reduction was found to be 4.1 in data set [1] (0 hour); 5.3 in data set [1] (6 hours); 5.3 in data set [1] (24 hours); 5.3 in data set [1] (28 days); 2.3 in data set [2] (0 hour); 6.0 in data set [2] (7 days). Besides, the Log reduction in data set [2] (28 days) is on record as 6.0; in data set [3] (0 hour), 1.0; in data set [3] (6 hours), 5.3; in data set [3] (24 hours), 5.3; in data set [3] (28 days), 5.3; in data set [4] (0 hour), 1.2. Besides, the Log reduction in data set [4] (6 hours) was determined as 3.3; in data set [4] (24 hours), 5.0; in data set [4] (28 days), 5.9; in data set [5] (0 hour) it was 0.9; in data set [5] (7 days), 2.8; in data set [5] (28 days), 2.5. In addition, the Count in data set [1] (6 hours) is reported as 0; in data set [1] (24 hours), 0; in data set [1] (28 days), 0; in data set [2] (0 hour) it was 5 × 10^3; in data set [2] (7 days), 0; in data set [2] (28 days), 0. Besides, the Count in data set [3] (0 hour) was 2 × 10^4; in data set [3] (6 hours), 0; in data set [3] (24 hours), 0; in data set [3] (28 days), 0; in data set [4] (0 hour), 5 × 10^4; in data set [4] (6 hours) it was 4 × 10^2. For the same compound, the Count in data set [4] (24 hours) is given as 8; in data set [4] (28 days), 0; in data set [5] (0 hour) it was 8 × 10^4; in data set [5] (7 days), 1 × 10^3; in data set [5] (28 days), 2 × 10^3. Moreover, the “Acceptance criteria of the antimicrobial effectiveness assay” value in data set [6] is on record as “meets the acceptance criteria”.

Take `CS(=O)(=O)c1cccc(C[C@H](NC(=O)c2c(Cl)cc3c(c2Cl)CCN(C(=O)c2ccc4ccoc4c2)C3)C(=O)O)c1` [lifitegrast]: the “Solubility in F6H8” value in data set [7] is “in soluble”.
